This note sets out measurements from patent publication US9776972B2, “Pyrazole derivatives as arginine methyltransferase inhibitors and uses thereof” (priority 2013, dated 2017).

The structures appear in SMILES notation.

For this experiment, the target named is T1, Human CARM1 (PRMT4) (Homo sapiens, UniProt Q86X55).
T1 construct: Flag-CARM1-His; made in house; host or cells: HEK 293F cells (BacMam baculovirus)
T1 sequence (Q86X55 1-585 isoform Q86X55-1): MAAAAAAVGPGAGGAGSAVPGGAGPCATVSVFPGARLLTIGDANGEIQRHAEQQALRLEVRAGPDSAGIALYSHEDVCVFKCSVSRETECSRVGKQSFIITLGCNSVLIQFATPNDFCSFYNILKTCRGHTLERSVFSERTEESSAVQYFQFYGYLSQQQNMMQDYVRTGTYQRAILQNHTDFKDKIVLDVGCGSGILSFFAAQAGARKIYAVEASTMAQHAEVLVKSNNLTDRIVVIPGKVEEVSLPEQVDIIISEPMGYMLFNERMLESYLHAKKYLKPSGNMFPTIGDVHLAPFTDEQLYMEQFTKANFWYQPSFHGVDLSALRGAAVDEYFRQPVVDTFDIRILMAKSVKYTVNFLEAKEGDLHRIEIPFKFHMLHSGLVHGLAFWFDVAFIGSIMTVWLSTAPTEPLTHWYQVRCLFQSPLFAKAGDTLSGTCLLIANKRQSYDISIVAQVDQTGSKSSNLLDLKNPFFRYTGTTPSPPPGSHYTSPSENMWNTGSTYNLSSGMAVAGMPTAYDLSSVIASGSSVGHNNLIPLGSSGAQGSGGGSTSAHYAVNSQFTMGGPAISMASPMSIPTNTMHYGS
Description: CARM1 Biochemical Assay (3H-SAM Flashplate, peptide substrate). The settings on record: single experiment or average of multiple experiments. In outline: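 Flag-CARM1-His from baculovirus was pre-incubated with compound for 30 min at room temperature in 20 mM Bicine pH 7.6, then reacted with 3H-SAM and a biotinylated H3(16-30) R26-monomethyl peptide.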
For `Cc1ccc(-c2n[nH]cc2CN(C)CCN)c(C)c1` [Compound 88], the concentration for half-maximal inhibition (IC50) (commonly the concentration that inhibits the measured activity by half) was 5220 nM. `CN(CCN)Cc1c[nH]nc1-c1ccccc1F` [Compound 72]: the IC50 came out at 7040 nM. Regarding `CNCCN(C)Cc1c[nH]nc1-c1ccccc1F` [Compound 48], the half-maximal inhibitory concentration (IC50) was determined as 5620 nM. `CN(CCN)Cc1c[nH]nc1-c1ccc(F)cc1` [Compound 1] gave an IC50 of 1350 nM. On to `CN(CCN)Cc1c[nH]nc1-c1ccc(C(C)(C)C)cc1` [Compound 74], for which the IC50 came out at 3530 nM. The same measure for `CN(CCN)Cc1cn(C2COC2)nc1-c1ccc(F)cc1` [Compound 77]: 4090 nM. In the case of `CN(CCN)Cc1c[nH]nc1-c1cccc(F)c1` [Compound 71] it was 715 nM. `Cc1ccc(-c2n[nH]cc2CN(C)CCN)c(Cl)c1` [Compound 90] returned an IC50 of 6920 nM. In the case of `CN(CCN)Cc1c[nH]nc1-c1ccc(Cl)cc1` [Compound 95] it was 392 nM. Regarding `CN(CCN)Cc1c[nH]nc1-c1ccc(Cl)cc1Cl` [Compound 86], the IC50 is 4190 nM. The same measure for `CNCCN(C)Cc1c[nH]nc1-c1cccc(NC(C)=O)c1` [Compound 42]: 2240 nM; for `CN(CCN)Cc1c[nH]nc1-c1ccc(OC(F)(F)F)cc1` [Compound 93]: 1830 nM.

As to `CNCCN(C)Cc1c[nH]nc1-c1ccc(CC#N)cc1` [Compound 34], the midpoint of inhibition, the IC50, lay at 1370 nM.

On to `CN(CCN)Cc1c[nH]nc1-c1ccccc1` [Compound 73], for which the midpoint of inhibition, the IC50, lay at 2900 nM. Consider `CN(CCN)Cc1c[nH]nc1-c1cccc(C#N)c1` [Compound 70], for which the IC50 is 3630 nM.

For `COc1ccc(-c2n[nH]cc2CN(C)CCN)c(OC)c1` [Compound 87], the 50% inhibitory concentration (IC50) worked out at 4380 nM. In the case of `CN(CCN)Cc1c[nH]nc1-c1ccc(C(F)(F)F)cc1` [Compound 92] it was 690 nM. In the case of `CC(C)Oc1ccc(-c2n[nH]cc2CN(C)CCN)cc1` [Compound 67] it was 247 nM; in that of `CNCCN(C)Cc1c[nH]nc1-c1cccc(N)c1` [Compound 32], 1130 nM. In the case of `CN(CCN)Cc1cnn(C2COC2)c1-c1ccc(F)cc1` [Compound 81] it was 1630 nM; in that of `CN(CCN)Cc1n[nH]cc1-c1ccc(F)cc1` [Compound 69], 3920 nM; in that of `CNCCN(C)Cc1cnn(C)c1-c1ccc(F)cc1` [Compound 10], 1190 nM. Regarding `CNCCN(C)Cc1c[nH]nc1-c1cccc(OC(F)(F)F)c1` [Compound 39], the IC50 was found to be 2110 nM.

`CCN(CCNC)Cc1c[nH]nc1-c1ccc(F)cc1` [Compound 9] registered an IC50 of 2810 nM. In the case of `CN(CCN)Cc1cnn(C)c1-c1ccc(F)cc1` [Compound 4] it was 742 nM. In the case of `CNCCN(C)Cc1c[nH]nc1-c1ccc(-c2ccccc2)cc1` [Compound 47] it was 28.3 nM; in that of `CNCCN(C)Cc1c[nH]nc1-c1cccc(C(C)=O)c1` [Compound 44], 1090 nM. For the molecule `CN(CCN)Cc1nn(C)cc1-c1ccc(C#N)cc1` [Compound 83], inhibition was half-maximal at 1130 nM (IC50). In the case of `CN(CCN)Cc1c[nH]nc1-c1ccc(F)cc1Cl` [Compound 89] it was 5980 nM; in that of `CNCCN(C)Cc1cnn(CC2CCOCC2)c1-c1ccc(F)cc1` [Compound 12], 4840 nM. In the case of `CN(CCN)Cc1c[nH]nc1-c1ccc(N2CCNCC2)cc1` [Compound 82] it was 9010 nM; in that of `CN(CCN)Cc1c[nH]nc1-c1ccc(OC(F)F)cc1` [Compound 94], 873 nM.
